PMC4832229 (Scientific Reports, 2016)
Where two headings read alike, the source gives them in different places.

Key:
[1] = tested on: ROS in C6 cells; test: ROS assay (CellROX) in C6 cells; type: cell-based, rat; settings: for effect on cisplatin-induced ROS: co-administered with cisplatin, CYM-5478 10 μM; for effect on CYM-5478-mediated attenuation of cisplatin-induced ROS: cisplatin + CYM-5478
Procedure: Cells were plated in clear-bottom, black-walled 96-well plates at ~50% confluence, incubated overnight, then treated overnight with cisplatin in the presence of the indicated compounds. All conditions were vehicle-controlled (0.1% DMSO). […] Cells were photographed with a 20X objective lens, 3 fields per well, 3 wells per condition. Quantification was performed using ImageJ software, but dividing the total integrated density of CellROX® labelling by the number of cells per Hoechst staining.

[2] = target: T1, S1P2 (Homo sapiens, UniProt O95136); test: TGFα-shedding assay, S1P2; type: cell-based
T1 construct: expressed in transfected cells; host or cells: HEK293
Procedure: (§1) The TGFα-shedding assay was performed essentially as described. Briefly, HEK293 cells were co-transfected with the indicated receptor expression construct and TGFα-alkaline phosphatase using Lipofectamine 2000 reagent (cat #11668019, Thermo Fisher), collected by trypsinization, washed with phosphate-buffered saline, and seeded into 96-well plates in Hank’s Balanced Saline Solution (HBSS). To improve assay sensitivity, S1P1 and S1P2 cells were co-transfected with Gαq/i1 chimeric protein, and S1P4 and S1P5 were co-transfected with Gαq/16, as previously described. Cells were stimulated with ligand for 1 hour, then alkaline phosphatase activity was detected in cells and in the supernatant. Receptor activity (% shedding) was defined as alkaline phosphatase activity of the supernatant/total alkaline phosphatase activity (cells + supernatant). Data processing and statistical analyses were performed with GraphPad Prism 6.

[3] = target: T2, S1P5 (Homo sapiens, UniProt Q9H228); test: TGFα-shedding assay, S1P5; type: cell-based
T2 construct: expressed in transfected cells; host or cells: HEK293
Procedure: as §1

[4] = target: T3, S1P2-EGFP (Homo sapiens, UniProt O95136); test: Receptor internalization assay, S1P2-EGFP; type: cell-based; settings: 1 μM ligand
T3 construct: expressed in transfected cells

[5] = target: T4, S1P3 (Homo sapiens, UniProt Q99500); test: TGFα-shedding assay, S1P3; type: cell-based; settings: for EC50: HEK293 cells, ligand 1 hour
T4 construct: expressed in transfected cells; host or cells: HEK293
Procedure: as §1

[6] = tested on: MDA-MB-231 breast cancer cells; test: Cell rounding assay in MDA-MB-231 cells (endogenous S1P2); type: cell-based; settings: for cell rounding response: serum-starved MDA-MB-231 cells, S1P 1 μM
Procedure: Cell rounding was performed essentially as described. […] After 15 min, the cells were fixed and stained with fluorescein phalloidin and DAPI for cell morphology. The number of cells with retracted neurites and the number of total cells were counted in three separate fields for each sample, and the percentage of cells with retracted neurites was calculated.

[7] = tested on: NOX3 complex (Nox3, NoxO1, NoxA1); test: NOX3 activity assay (luminol) in transfected HEK293 cells; type: cell-based; settings: HEK293, S1P 1 μM, 15 minutes
Procedure: NOX3 activity was determined as previously described. […] Indicated values were taken 15 minutes following stimulation.

[8] = target: T5, S1P3-EGFP (Homo sapiens, UniProt Q99500); test: Receptor internalization assay, S1P3-EGFP; type: cell-based; settings: 1 μM ligand
T5 construct: expressed in transfected cells

[9] = target: T6, S1P1-EGFP (Homo sapiens, UniProt P21453); test: Receptor internalization assay, S1P1-EGFP; type: cell-based; settings: 1 μM ligand
T6 construct: expressed in transfected cells

[10] = target: T7, S1P1 (Homo sapiens, UniProt P21453); test: TGFα-shedding assay, S1P1; type: cell-based; settings: for EC50: HEK293 cells, ligand 1 hour
T7 construct: expressed in transfected cells; host or cells: HEK293
Procedure: as §1

[11] = target: T8, S1P4 (Homo sapiens, UniProt O95977); test: TGFα-shedding assay, S1P4; type: cell-based; settings: for EC50: HEK293 cells, ligand 1 hour
T8 construct: expressed in transfected cells; host or cells: HEK293
T8 sequence (O95977 1-384): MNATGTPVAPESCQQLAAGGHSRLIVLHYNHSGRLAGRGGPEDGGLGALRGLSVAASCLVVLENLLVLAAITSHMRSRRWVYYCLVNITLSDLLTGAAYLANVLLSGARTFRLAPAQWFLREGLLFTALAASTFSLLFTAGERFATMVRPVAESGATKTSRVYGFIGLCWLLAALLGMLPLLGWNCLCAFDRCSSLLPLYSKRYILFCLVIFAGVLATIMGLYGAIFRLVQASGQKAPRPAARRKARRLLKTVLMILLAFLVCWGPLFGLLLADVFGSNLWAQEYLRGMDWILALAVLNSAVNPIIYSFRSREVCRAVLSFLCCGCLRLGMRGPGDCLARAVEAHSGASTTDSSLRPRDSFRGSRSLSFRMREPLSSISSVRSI
Procedure: as §1

[12] = tested on: C6 rat glioma cells; test: Viability assay (MTT) in C6 cells; type: cell-based; settings: for EC50: vehicle
Procedure: Cell viability was determined by 3-(4,5-dimethylthiazol-2-yl)-2,5-diphenyltetrazolium bromide (MTT) assay as described. Briefly, C6 cells were seeded into 96-well plates at 20,000 cells/well, incubated overnight, serum-starved for 4 h, and treated for 72 hours with cisplatin in the presence of CYM-5478 or vehicle.

[13] = tested on: C6 cells; test: Cell death assay (propidium iodide exclusion) in C6 cells; type: cell-based, rat
Procedure: Cell death was evaluated by propidium iodide exclusion assay. Cells were plated in 96-well plates at ~50% confluence, incubated overnight, then treated with cisplatin (67 μM) for 24 hours in the presence of vehicle or 10 μM CYM-5478. Cell were treated with Hoechst 33342 (1 mg/ml) and propidium iodide (0.3 mg/ml) for 20 minutes, washed with phosphate-buffered saline, then rapidly photographed with a Cytation 3 automated imager (Biotek Instruments, Inc.). % cell death reflects a ratio of propidium iodide-positive and Hoechst 33342-positive cells.

[14] = tested on: caspase 3/7 activity in C6 cells; test: Caspase-Glo 3/7 assay in C6 cells; type: cell-based, rat
Procedure: Cells were plated in clear-bottom, black-walled 96-well plates at ~50% confluence, incubated overnight, then treated overnight with cisplatin in the presence of vehicle or 10 μM CYM-5478. Caspase activation was evaluated by Caspase-Glo 3/7 Assay System (Promega Corporation) per manufacturer’s instructions.

[15] = target: T1, S1P2; settings: cited from earlier work
[16] = tested on: other S1P receptor subtypes; test: TGFα-shedding assay, other S1P receptor subtypes (summary statement); type: cell-based; settings: subtypes other than S1P2
Procedure: as §1

T7 sequence (P21453 whole entry, species assumed): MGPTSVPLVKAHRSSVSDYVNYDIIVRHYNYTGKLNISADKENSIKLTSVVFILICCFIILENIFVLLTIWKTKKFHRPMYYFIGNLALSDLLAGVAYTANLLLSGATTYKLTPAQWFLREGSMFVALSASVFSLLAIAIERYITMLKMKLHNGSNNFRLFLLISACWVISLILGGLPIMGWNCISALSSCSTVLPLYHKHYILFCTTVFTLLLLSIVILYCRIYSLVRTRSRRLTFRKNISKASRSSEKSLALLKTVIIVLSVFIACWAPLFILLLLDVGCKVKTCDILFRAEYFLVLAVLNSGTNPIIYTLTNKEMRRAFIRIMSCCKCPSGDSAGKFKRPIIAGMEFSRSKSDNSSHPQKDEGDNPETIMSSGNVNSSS
T1 sequence (O95136 whole entry, species assumed): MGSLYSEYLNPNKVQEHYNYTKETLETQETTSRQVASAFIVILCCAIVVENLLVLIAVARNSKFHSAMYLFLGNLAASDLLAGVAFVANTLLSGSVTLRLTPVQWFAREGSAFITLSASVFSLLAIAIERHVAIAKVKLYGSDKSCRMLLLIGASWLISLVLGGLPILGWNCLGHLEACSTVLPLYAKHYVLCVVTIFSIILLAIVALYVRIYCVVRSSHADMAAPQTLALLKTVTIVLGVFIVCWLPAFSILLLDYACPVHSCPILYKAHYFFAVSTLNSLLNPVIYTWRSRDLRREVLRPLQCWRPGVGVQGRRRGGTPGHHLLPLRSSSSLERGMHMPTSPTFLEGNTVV
T4 sequence (Q99500 whole entry, species assumed): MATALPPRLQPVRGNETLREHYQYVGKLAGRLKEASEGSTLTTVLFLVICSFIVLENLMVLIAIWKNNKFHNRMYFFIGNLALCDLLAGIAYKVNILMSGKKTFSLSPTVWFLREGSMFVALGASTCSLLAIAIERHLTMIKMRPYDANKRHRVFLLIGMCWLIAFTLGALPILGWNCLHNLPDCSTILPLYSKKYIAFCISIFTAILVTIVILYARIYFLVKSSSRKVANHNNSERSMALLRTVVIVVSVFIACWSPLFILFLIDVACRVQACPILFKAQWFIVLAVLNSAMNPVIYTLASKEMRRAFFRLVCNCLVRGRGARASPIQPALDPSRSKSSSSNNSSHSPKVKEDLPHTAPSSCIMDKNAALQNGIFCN
T3 sequence (O95136 whole entry): as the sequence (O95136 whole entry, species assumed) above
T2 sequence (Q9H228 whole entry, species assumed): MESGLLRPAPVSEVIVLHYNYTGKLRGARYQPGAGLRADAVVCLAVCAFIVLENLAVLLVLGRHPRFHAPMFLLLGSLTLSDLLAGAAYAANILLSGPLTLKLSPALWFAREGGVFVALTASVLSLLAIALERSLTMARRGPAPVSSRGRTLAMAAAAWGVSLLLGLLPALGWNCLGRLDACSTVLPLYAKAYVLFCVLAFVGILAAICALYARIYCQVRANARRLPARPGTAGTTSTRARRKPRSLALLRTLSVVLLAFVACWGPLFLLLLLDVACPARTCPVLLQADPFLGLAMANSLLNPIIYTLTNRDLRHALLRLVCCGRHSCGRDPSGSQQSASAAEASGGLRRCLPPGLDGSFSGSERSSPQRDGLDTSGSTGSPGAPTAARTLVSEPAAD
T6 sequence (P21453 whole entry): as the sequence (P21453 whole entry, species assumed) above
T5 sequence (Q99500 whole entry): as the sequence (Q99500 whole entry, species assumed) above

For c1ccc2c(c1)[I+]c1ccccc1-2 [DPI, diphenyleneiodonium], the “effect on cisplatin-induced ROS” value [1] was “phenocopied”.

With C[C@@H](N)[C@H]1CC[C@H](C(=O)Nc2ccncc2)CC1 [Y-27632] the “effect on CYM-5478-mediated attenuation of cisplatin-induced ROS” value [1] was “complete attenuation of CYM-5478 activity” and the “effect on cisplatin-induced ROS” value [1] was “no effect on cisplatin-induced ROS”.

With CCCCCCCCCCCCC/C=C/[C@@H](O)[C@@H](N)COP(=O)(O)O [S1P, sphingosine 1-phosphate] the Emax [2] was 100%, the Emax [3] was 100% and the “internalization of S1P2-EGFP” value [4] was “largely internalized to cytoplasmic vesicles”. For the same compound, the Emax [5] was 100%, the EC50 [5] was 55.4 nM and the cell rounding response [6] was “pronounced cytoskeletal rearrangement characterized by process retraction and cell rounding”. The “S1P-dependent reduction of NOX3 ROS, co-transfected S1P1” value [7] was “not observed”, the “S1P-dependent reduction of NOX3 ROS, co-transfected S1P3” value [7] was “not observed” and the “effect on NOX3 ROS generation, co-transfected S1P2” value [7] was “further attenuated”. The “internalization of S1P3-EGFP” value [8] was “largely internalized to cytoplasmic vesicles”, the “internalization of S1P1-EGFP” value [9] was “largely internalized to cytoplasmic vesicles” and the EC50 [10] was 115 nM. It also gave an Emax [11] of 100% and an EC50 [11] of 175 nM.

With CCN(CC)CCCC(C)Nc1nc(C)cc(Nc2ccc3nc(C)cc(N)c3c2)n1 (centres unmarked) [NSC23766] the “effect on cisplatin-induced ROS” value [1] was “phenocopied”.

OO [H2O2, hydrogen peroxide] gave an EC50 ([12]; C6 cells, read-out: EC50 of hydrogen peroxide, + vehicle) of 1860 nM.

For N.N.[Cl][Pt][Cl] [Cisplatin, cis-Diammineplatinum(II) dichloride], the “increase in propidium iodide-positive cells” value ([13]; cisplatin 67 μM, 24 hours) was > 3 fold, the “ROS accumulation (CellROX fluorescence)” value ([1]; cisplatin 20 μM, 24 hours) was “increase in ROS” and the EC50 ([12]; C6 cells, 72 hours, MTT, read-out: EC50 of cisplatin-mediated reduction in viability, + vehicle) was 1340 nM. The “caspase 3/7 activity” value ([14]; overnight) was “significant increase in caspase 3/7 activity”.

In the case of JTE-013, the “effect on CYM-5478-mediated attenuation of cisplatin-induced ROS” value [1] is reported as “complete attenuation of CYM-5478 activity”, the “effect on cisplatin-induced ROS” value [1] is reported as “no effect on cisplatin-induced ROS” and the “effect of pre-treatment on CYM-5478-induced cell rounding” value ([6]; pre-treatment 15 minutes before CYM-5478) is reported as “similarly abrogated”. The “effect of pre-treatment on S1P-induced cell rounding” value ([6]; pre-treatment 15 minutes before S1P (1 μM)) was “completely abrogated”.

With Cc1cc(C(=O)Cn2cc(C(F)(F)F)ccc2=O)c(C)n1Cc1ccccc1 [CYM-5478] the EC50 ([2]; HEK293 cells, ligand 1 hour) was 119 nM, the “S1P2 Emax” value ([2]; relative to S1P) was 99.5% and the EC50 ([3]; HEK293 cells, ligand 1 hour) was > 10000 nM. The EC50 ([15]; Scripps Research Institute Molecular Screening Center HTS, ref http://pubchem.ncbi.nlm.nih.gov/assay/assay.cgi?aid=872, read-out: EC50 in the original screen) was 723 nM, the EC50 ([15]; read-out: EC50 in subsequent validation studies) was 780 nM and the “effect on cisplatin-induced increase in propidium iodide-positive cells” value ([13]; co-administration of 10 μM CYM-5478 with cisplatin 67 μM, 24 hours) was “attenuated”. The “change in propidium iodide-positive cells, treatment alone” value ([13]; without cisplatin) was “no significant change”, the “effect on cisplatin-induced ROS” value [1] was “significantly attenuated” and the “increase in EC50 of cisplatin conferred by co-administration” value ([12]; C6 cells, 10 μM CYM-5478) was 3 fold. The “increase in viability in the presence of 10% fetal bovine serum” value ([12]; C6 cells, 10% fetal bovine serum (data not shown)) was “absent”, the “effect on EC50 of cisplatin in the presence of 1 mM N-acetylcysteine” value ([12]; C6 cells, vs vehicle-treated) was “no significant difference” and the “protection of C6 cells from exogenously administered ROS (hydrogen peroxide)” value ([12]; presence vs absence of CYM-5478) was “equally sensitive”. For the same compound, the “concentrations giving statistically significant, dose dependent increase in viability” value ([12]; serum-starved C6 cells, MTT) was “above 100 nM”, the “internalization of S1P2-EGFP” value [4] was “induced the internalization of S1P2-EGFP” and the EC50 [5] was 1950 nM. The “S1P3 Emax” value ([5]; relative to S1P) was 20.8%, the cell rounding response [6] was “identical rounding response” and the “efficacy against the other S1P receptor subtypes” value [16] was “less than 25%”. For the same compound, the “lower potency against the other S1P receptor subtypes vs S1P2” value [16] was 10 fold, the “effect on cisplatin-induced caspase 3/7 activity” value ([14]; co-administration of 10 μM CYM-5478) was “markedly attenuated” and the EC50 [10] was 1690 nM. The “S1P1 Emax” value ([10]; relative to S1P) was 24.2% and the EC50 [11] was > 10000 nM.
